In patent US20190151312A1, “HEPARAN SULFATE BIOSYNTHESIS INHIBITORS FOR THE TREATMENT OF DISEASES” (BioMarin Pharmaceutical Inc., priority 2014, published 2019):

System: GM01896 cells (MPS II dermal fibroblasts)
Assay: Assay 1: MPS cellular assay, MPS II (heparan sulfate disaccharide biomarkers by LC-MS)
Type: cell-based, human
Details: Assay 1 for MPS II, heparan sulfate disaccharide biomarkers (I2a4, I2a6, I2S0 and/or I2S6), read-out: IC50 Range
In short: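 Heparan sulfate disaccharide biomarkers quantified by LC-MS after heparinase I/II/III digestion and isotopic aniline labelling, using GM01896 MPS II fibroblasts exposed to compound (at or below 30 μM, 4-21 days). Values given as IC50 by curve fitting; cell viability checked with alamar blue or ATP.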

Row | SMILES | IC50 [nM]
1 | Cc1nn(CCN(C)C)c2cc(-c3cc(Nc4ccc(Cl)cc4)nc(N4CCOCC4)n3)ccc12 [[2-(6-{6-[(4-chlorophenyl)amino]-2-morpholin-4-ylpyrimidin-4-yl}-3-methyl(1H-indazoly))ethyl]dimethylamine] | 1000 to 5000
2 | Cc1nc2ccc(-c3cc(Nc4ccc(Cl)cc4)nc(N4CCOCC4)n3)cc2n1CCN(C)C [[2-(6-{6-[(4-chlorophenyl)amino]-2-morpholin-4-ylpyrimidin-4-yl}-2-methylbenzimidazolyl)ethyl]dimethylamine] | 1000 to 5000
3 | Cn1ncc2ccc(-c3cc(Nc4ccc(-n5cccn5)cc4)nc(N4CCOCC4)n3)cc21 [[6-(1-methyl(1H-indazol-6-yl))-2-morpholin-4-ylpyrimidin-4-yl](4-pyrazolylphenyl)amine] | < 500

Same assay, conditions: Homo sapiens, Fibroblast, Assay 1 for MPS II, heparan sulfate disaccharide biomarkers (I2a4, I2a6, I2S0 and/or I2S6), read-out: IC50 Range

Row | SMILES | IC50 [nM]
4 | Clc1ccc(Nc2cc(-c3ccc4cnn(CCCN5CCOCC5)c4c3)nc(N3CCOCC3)n2)cc1 [(4-chlorophenyl){2-morpholin-4-yl-6-[1-(3-morpholin-4-ylpropyl)(1H-indazol-6-yl)]pyrimidin-4-yl}amine] | 1000 to 5000
5 | Cn1cnc2ccc(-c3cc(Nc4ccc(C(=O)NC5CC5)nc4)nc(N4CCOCC4)n3)cc21 [N-cyclopropyl(5-{[6-(1-methylbenzimidazol-6-yl)-2-morpholin-4-ylpyrimidin-4-yl]amino}(2-pyridyl))carboxamide] | 500 to 1000
6 | COc1cc(Nc2cc(-c3ccc4c(cnn4C)c3)nc(N3CCOCC3)n2)ccn1 [(2-methoxy(4-pyridyl))[6-(1-methyl(1H-indazol-5-yl))-2-morpholin-4-ylpyrimidin-4-yl]amine] | 1000 to 5000
7 | COc1cc(Nc2cc(-c3ccc4ncn(C)c4c3)nc(N3CCOCC3)n2)ccn1 [(2-methoxy(4-pyridyl))[6-(1-methylbenzimidazol-6-yl)-2-morpholin-4-ylpyrimidin-4-yl]amine] | 500 to 1000
8 | Cc1nc2cc(-c3cc(Nc4ccc(Cl)cc4)nc(N4CCOCC4)n3)ccc2n1C1CCC1 [(4-chlorophenyl)[6-(1-cyclobutyl-2-methylbenzimidazol-5-yl)-2-morpholin-4-ylpyrimidin-4-yl]amine] | 1000 to 5000
9 | Cc1nn(CCCN(C)C)c2cc(-c3cc(Nc4ccc(Cl)cc4)nc(N4CCOCC4)n3)ccc12 [[3-(6-{6-[(4-chlorophenyl)amino]-2-morpholin-4-ylpyrimidin-4-yl}-3-methyl(1H-indazolyl))propyl]dimethylamine] | 500 to 1000
10 | Cn1cnc2ccc(-c3cc(Nc4ccc(Br)cc4)nc(N4CCOCC4)n3)cc21 [(4-bromophenyl)[6-(1-methylbenzimidazol-6-yl)-2-morpholin-4-ylpyrimidin-4-yl]amine] | 500 to 1000
11 | Cn1nc(CCCN)c2ccc(-c3cc(Nc4ccc(Cl)cc4)nc(N4CCOCC4)n3)cc21 [{6-[3-(3-aminopropyl)-1-methyl(1H-indazol-6-yl)]-2-morpholin-4-ylpyrimidin-4-yl}(4-chlorophenyl)amine] | 1000 to 5000
12 | Cn1ncc2ccc(-c3cc(Nc4ccc(-c5ncc[nH]5)cc4)nc(N4CCOCC4)n3)cc21 [(4-imidazol-2-ylphenyl)[6-(1-methyl(1H-indazol-6-yl))-2-morpholin-4-ylpyrimidin-4-yl]amine] | < 500
13 | Cc1ccc(Nc2cc(-c3ccc4c(c3)ncn4C)nc(N3CCOCC3)n2)cc1 [[6-(1-methylbenzimidazol-5-yl)-2-morpholin-4-ylpyrimidin-4-yl](4-methylphenyl)amine] | 500 to 1000
14 | Cn1ccc2ccc(Nc3cc(-c4ccc5nc(CCN6CCOCC6)n(CC6CC6)c5c4)nc(N4CCOCC4)n3)cc21 [{6-[1-(cyclopropylmethyl)-2-(2-morpholin-4-ylethyl)benzimidazol-6-yl]-2-morpholin-4-ylpyrimidin-4-yl}(1-methylindol-6-yl)amine] | < 500
15 | CNC(=O)c1ccc(Nc2cc(-c3ccc4cnn(CCN5CCCC5)c4c3)nc(N3CCOCC3)n2)cc1 [N-methyl[4-({2-morpholin-4-yl-6-[1-(2-pyrrolidinylethyl)(1H-indazol-6-yl)]pyrimidin-4-yl}amino)phenyl]carboxamide] | 500 to 1000
16 | Cn1ncc2ccc(-c3cc(Nc4ccc(-c5nnc(C(F)(F)F)[nH]5)cc4)nc(N4CCOCC4)n3)cc21 [[6-(1-methyl(1H-indazol-6-yl))-2-morpholin-4-ylpyrimidin-4-yl]{4-[5-(trifluoromethyl)(4H-1,2,4-triazol-3-yl)]phenyl}amine] | 1000 to 5000
17 | CNC(=O)c1ccc(Nc2cc(-c3ccc4ncn(CCOC)c4c3)nc(N3CCOCC3)n2)cc1 [[4-({6-[1-(2-methoxyethyl)benzimidazol-6-yl]-2-morpholin-4-ylpyrimidin-4-yl}amino)phenyl]-N-methylcarboxamide] | < 500
18 | Cn1c(CN2CCCC2)nc2ccc(-c3cc(Nc4ccc(Cl)cc4)nc(N4CCOCC4)n3)cc21 [(4-chlorophenyl){6-[1-methyl-2-(pyrrolidinylmethyl)benzimidazol-6-yl]-2-morpholin-4-ylpyrimidin-4-yl}amine] | 1000 to 5000
19 | COCCn1ncc2ccc(-c3cc(Nc4ccc(C(=O)OC)cc4)nc(N4CCOCC4)n3)cc21 [methyl 4-({6-[1-(2-methoxyethyl)(1H-indazol-6-yl)]-2-morpholin-4-ylpyrimidin-4-yl}amino)benzoate] | 500 to 1000
20 | Cc1nnc(-c2ccc(Nc3cc(-c4cnc5cnn(C)c5c4)nc(N4CCOCC4)n3)cc2)[nH]1 [[4-(5-methyl(4H-1,2,4-triazol-3-yl))phenyl][6-(1-methylpyrazolo[4,5-b]pyridin-6-yl)-2-morpholin-4-ylpyrimidin-4-yl]amine] | < 500

Row | SMILES | IC50 [nM]
21 | Cc1nn(C)c2cc(-c3cc(Nc4ccc(-c5ccn(C)c5)cc4)nc(N4CCOCC4)n3)ccc12 [[6-(1,3-dimethyl(1H-indazol-6-yl))-2-morpholin-4-ylpyrimidin-4-yl][4-(1-methylpyrrol-3-yl)phenyl]amine] | 1000 to 5000
22 | Cn1ncc2ccc(-c3cc(Nc4ccc(C(=O)NC5CC5)cc4)nc(N4CCOCC4)n3)cc21 [N-cyclopropyl(4-{[6-(1-methyl(1H-indazol-6-yl))-2-morpholin-4-ylpyrimidin-4-yl]amino}phenyl)carboxamide] | 1000 to 5000
23 | CNC(=O)c1ccc(Nc2cc(-c3ccc4c(c3)ncn4CC3CC3)nc(N3CCOCC3)n2)cc1 [[4-({6-[1-(cyclopropylmethyl)benzimidazol-5-yl]-2-morpholin-4-ylpyrimidin-4-yl}amino)phenyl]-N-methylcarboxamide] | < 500
24 | Cn1nc(CCN2CCOCC2)c2ccc(-c3cc(Nc4ccc(-n5nccn5)cc4)nc(N4CCOCC4)n3)cc21 [{6-[1-methyl-3-(2-morpholin-4-ylethyl)(1H-indazol-6-yl)]-2-morpholin-4-ylpyrimidin-4-yl}(4-(1,2,3-triazol-2-yl)phenyl)amine] | < 500
25 | CN(C)CCCc1nn(C)c2cc(-c3cc(Nc4ccc5ccn(C)c5c4)nc(N4CCOCC4)n3)ccc12 [dimethyl[3-(1-methyl-6-{6-[(1-methylindol-6-yl)amino]-2-morpholin-4-ylpyrimidin-4-yl} (1H-indazol-3-yl))propyl]amine] | < 500
26 | Cc1nn(C)c2cc(-c3cc(Nc4ccc(-c5cc[nH]c5)cc4)nc(N4CCOCC4)n3)ccc12 [[6-(1,3-dimethyl(1H-indazol-6-yl))-2-morpholin-4-ylpyrimidin-4-yl](4-pyrrol-3-ylphenyl)amine] | 500 to 1000
27 | Cn1ncc2ccc(-c3cc(Nc4ccc(-c5cc[nH]c5)cc4)nc(N4CCOCC4)n3)cc21 [[6-(1-methyl(1H-indazol-6-yl))-2-morpholin-4-ylpyrimidin-4-yl](4-pyrrol-3-ylphenyl)amine] | 500 to 1000
28 | Clc1ccc(Nc2cc(-c3ccc4c(c3)ncn4CC3CC3)nc(N3CCOCC3)n2)cc1 [(4-chlorophenyl){6-[1-(cyclopropylmethyl)benzimidazol-5-yl]-2-morpholin-4-ylpyrimidin-4-yl}amine] | 500 to 1000
29 | Cn1c(CCCN2CCOCC2)nc2ccc(-c3cc(Nc4ccc(Cl)cc4)nc(N4CCOCC4)n3)cc21 [(4-chlorophenyl){6-[1-methyl-2-(3-morpholin-4-ylpropyl)benzimidazol-6-yl]-2-morpholin-4-ylpyrimidin-4-yl}amine] | 1000 to 5000
30 | Cn1ncc2ccc(-c3cc(Nc4ccc(NS(C)(=O)=O)cc4)nc(N4CCOCC4)n3)cc21 [(4-{[6-(1-methyl(1H-indazol-6-yl))-2-morpholin-4-ylpyrimidin-4-yl]amino}phenyl)(methylsulfonyl)amine] | 500 to 1000
31 | Cn1nc(CCN2CCOCC2)c2ccc(-c3cc(Nc4ccc5cn[nH]c5c4)nc(N4CCOCC4)n3)cc21 [1H-indazol-6-yl{6-[1-methyl-3-(2-morpholin-4-ylethyl)(1H-indazol-6-yl)]-2-morpholin-4-ylpyrimidin-4-yl}amine] | 500 to 1000
32 | Cn1c(CN2CCOCC2)nc2ccc(-c3cc(Nc4ccc(Cl)cc4)nc(N4CCOCC4)n3)cc21 [(4-chlorophenyl){6-[1-methyl-2-(morpholin-4-ylmethyl)benzimidazol-6-yl]-2-morpholin-4-ylpyrimidin-4-yl}amine] | 500 to 1000
33 | CN(C)c1nn(C)c2cc(-c3cc(Nc4ccc(Cl)cc4)nc(N4CCOCC4)n3)ccc12 [(6-{6-[(4-chlorophenyl)amino]-2-morpholin-4-ylpyrimidin-4-yl}-1-methyl(1H-indazol-3-yl))dimethylamine] | 1000 to 5000
34 | Cc1nn(C)c2cc(-c3cc(Nc4ccc5nn(C)cc5c4)nc(N4CCOCC4)n3)ccc12 [[6-(1,3-dimethyl(1H-indazol-6-yl))-2-morpholin-4-ylpyrimidin-4-yl](2-methyl(2H-indazol-5-yl))amine] | 1000 to 5000
35 | CC(C)NC(=O)c1ccc(Nc2cc(-c3ccc4cnn(C)c4c3)nc(N3CCOCC3)n2)cc1 [(4-{[6-(1-methyl(1H-indazol-6-yl))-2-morpholin-4-ylpyrimidin-4-yl]amino}phenyl)-N-(methylethyl)carboxamide] | 500 to 1000
36 | Cc1nn(C)c2cc(-c3cc(Nc4ccc(C5=NCCO5)cc4)nc(N4CCOCC4)n3)ccc12 [[6-(1,3-dimethyl(1H-indazol-6-yl))-2-morpholin-4-ylpyrimidin-4-yl](4-(1,3-oxazolin-2-yl)phenyl)amine] | 1000 to 5000
